Test [1] has as its target T1, human TPST1 (Homo sapiens, UniProt O60507).
T1 construct: human TPST1 (residues Lys43–Leu360) and TPST2 (residues Gly43–Leu359) enzymes lacking the transmembrane domains; made in house; host or cells: E. coli BL21 (DE3) pLysS
T1 sequence (O60507 43-360): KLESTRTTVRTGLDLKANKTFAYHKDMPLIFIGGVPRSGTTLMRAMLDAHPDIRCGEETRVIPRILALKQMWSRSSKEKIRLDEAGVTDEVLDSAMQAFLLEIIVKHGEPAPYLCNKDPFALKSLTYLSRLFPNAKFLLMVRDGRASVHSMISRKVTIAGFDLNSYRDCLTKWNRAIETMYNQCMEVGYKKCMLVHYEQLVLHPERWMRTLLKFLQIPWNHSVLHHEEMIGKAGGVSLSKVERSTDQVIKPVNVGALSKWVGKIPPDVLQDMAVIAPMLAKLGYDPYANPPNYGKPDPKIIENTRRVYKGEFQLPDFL
Description: Differential scanning fluorimetry (thermal shift) assay with TPST1. It is filed as binding. Particulars: DSF, TPST1 5 µM. A general note: DSF heats the sample and reads unfolding from a dye or from intrinsic fluorescence.

For the next test, the system named is TPST1. The settings on record: read-out: Km for PAPS, TPST1, literature reports; cited from earlier work.
The target in test [2] is T2, human TPST2 (Homo sapiens, UniProt O60704).
T2 construct: TPST2 (residues Gly43–Leu359) enzymes lacking the transmembrane domains; made in house; host or cells: E. coli BL21 (DE3) pLysS
T2 sequence (O60704 43-359): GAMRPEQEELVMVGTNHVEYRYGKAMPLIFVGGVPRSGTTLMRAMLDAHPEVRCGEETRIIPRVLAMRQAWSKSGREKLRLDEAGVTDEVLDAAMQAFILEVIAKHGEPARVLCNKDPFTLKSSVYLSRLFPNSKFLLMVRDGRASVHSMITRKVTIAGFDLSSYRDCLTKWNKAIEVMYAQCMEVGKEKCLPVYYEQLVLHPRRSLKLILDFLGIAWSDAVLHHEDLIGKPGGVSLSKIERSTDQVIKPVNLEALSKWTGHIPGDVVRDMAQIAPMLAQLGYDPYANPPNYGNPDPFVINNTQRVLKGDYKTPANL
Description: Differential scanning fluorimetry (thermal shift) assay with TPST2. It counts as binding. Particulars: DSF, TPST2 5 µM.

For another test, the system named is TPST2. The settings on record: cited from earlier work.
Test [3] concerns the target T1, human TPST1. Description: EZ Reader II microfluidic mobility-shift CC4-tide sulfation assay, TPST1. The settings on record: 10 µM PAPS. It is filed as biochemical.
Test [4] deals with T1, human TPST1. Description: GST-CC4-tide tyrosine sulfation by TPST1, immunoblotting with monoclonal sulfotyrosine antibody. The settings on record: GST-CC4-tide 1 µg, 10 µM PAPS, increasing concentrations of inhibitor. It counts as biochemical. Here is the method:
After the assay, proteins were denatured in Laemmli sample buffer, heated at 95°C for 5 min and then analysed by SDS–PAGE with 10% (v/v) polyacrylamide gels. Gels were stained and destained using a standard Coomassie Brilliant Blue protocol. To evaluate protein sulfation and phosphorylation by immunoblotting, standard western blotting procedures were followed using monoclonal anti-sulfotyrosine antibody clone Sulfo-1C-A2 (Millipore) generated using a phage display procedure and sulfotyrosine selection peptide antigens in the presence of appropriate positive and negative controls, and modifications visualised using the ECL reagent.
(Immunoblotting shows a protein as a band on a membrane.)

Test [5] concerns the target T2, human TPST2. The test is described as follows: EZ Reader II microfluidic mobility-shift CC4-tide sulfation assay, TPST2. It counts as biochemical.
The test system of test [6] is heparin sulfate 2-O sulfotransferase HS2ST. Further details: method as in PMID 29934491. The settings on record: cited from earlier work.
Setting [7] is: 0.5 mM nucleotide, relative to buffer control.

Where two headings read alike, the source gives them in different places.

The text below walks through data of publication PMC6094398, “New tools for evaluating protein tyrosine sulfation: tyrosylprotein sulfotransferases (TPSTs) are novel targets for RAF protein kinase inhibitors” (Biochemical Journal, 2018).

One may read the Km as the concentration of substrate that gives half-maximal velocity. With `Nc1ncnc2c1ncn2C1OC(COP(=O)(O)OS(=O)(=O)O)C(OP(=O)(O)O)C1O` (stereo not shown) [PAPS, adenosine 3′-phosphate 5′-phosphosulfate], the “ΔTm TPST1” value at human TPST1 [1] (setting [7]) was ~3 °C. Besides, the Km in the test on TPST1 is 2 to 5 µM; in the test on TPST2 (read-out: Km for PAPS, TPST2 obtained from transfected CHO cell medium), 12 µM; with TPST2 (read-out: Km for PAPS, recombinant TPST2 isolated from baculovirus-infected insect cells), ~5 µM. Further, on human TPST2 [2] (setting [7]), the “ΔTm TPST2” value was ~9 °C.

A word on the IC50: it is the midpoint of a concentration-inhibition curve. Consider `CC(=O)c1c(O)c(C)c(O)c(Cc2c(O)c3c(c(C(=O)/C=C/c4ccccc4)c2O)OC(C)(C)C=C3)c1O` [Rottlerin], for which, on human TPST1 [1] (10 µM rottlerin), the “Thermal shift of TPST1 (in words)” value was “positive”. Also, the concentration for half-maximal inhibition (IC50) is 500 nM at human TPST1 [3] (TPST1 IC50 (rottlerin dose-response), Fig 6A, CC4-tide, normalised to 1% DMSO); ~1000 nM on human TPST1 [3] (TPST1 IC50, previously described compounds, Fig 6C, CC4-tide, normalised to 1% DMSO); 600 nM at human TPST1 [3] (TPST1 estimated IC50, RAF kinase inhibitors, Fig 8B, TPST1 0.1 µM pre-incubated with compound); 1140 nM at human TPST2 [5]. In addition, at human TPST1 [4], the “Inhibition of GST-CC4-tide tyrosine sulfation by TPST1 (immunoblot, in words)” value is on record as “dose-dependent inhibition”. Further, the “Thermal shift of TPST2 (in words)” value at human TPST2 [2] (10 µM rottlerin) is reported as “positive”. Also, the “HS2ST inhibition in vitro (in words)” value in test [6] is on record as “inhibitory activity”.
